Test results reported in patent publication US10761045B2, “Sensor, sensor system, method of manufacturing sensor, and method of measuring concentration of target substance” (PHC Holdings Corporation, priority 2010, dated 2020).
≈ marks a conversion by molar mass, not a printed value. Read-outs that look alike come from different tables or passages of the source.

Key:
[1] = Storage stability of reagent solution (response current of sensors made with stored vs fresh reagent solution); format: physicochemical
From the text: A sensor having the configuration illustrated in FIG. 1 was manufactured. The detailed procedure will now be described. First, by sputtering palladium, 8 nm-thick conductive layer 3 was deposited on substrate 2 which was 30 mm in length, 7 mm in width and 0.2 mm in thickness and which contained polyethylene terephthalate as its main component. Thereafter, a 0.1 mm-width non-conductive track was formed by laser ablation, to form electrodes 31 to 33. Electrode 31 was designed to function as a working electrode, electrode 32 as a counter electrode, and electrode 33 as a sensing electrode.
Using a microsyringe, 1.2 μL of each reagent solution was applied to form reagent layer 4 in a shape of 2.2 mm diameter-circular. After formation of reagent layer 4, spacer 5 (0.145 mm thick) having a cut-out with a length of 3.4 mm a width of 1.2 mm and cover 6 were sequentially attached to the substrate having the electrodes formed thereon. In this way a sensor was manufactured that has a capillary having a volume of 0.6 μL. […]
Response current values of each sensor were measured using a series of glucose solutions of known concentrations.
By adding as an additive imidazole, histamine, histidine, 2-aminoimidazole, 4,5-bis(hydroxymethyl)imidazole, 1,2,4-triazole, 3-amino-1,2,4-triazole, 4-amino-1,2,4-triazole, 3,5-diamino-1,2,4-triazole, 2-methylimidazole, or 1,2-dimethylimidazole, reagent solutions were prepared that contain the same composition as reagent solution C except the type and concentration of the additive. The concentrations of the additives are as indicated in Tables below and the accompanying drawings.
Further, sensors were manufactured using the same reagent solutions stored at 25° C. and 5% humidity for 24 hours after preparation. […]

[2] = Stability test (exposure test) of sensor at 30° C., 80% humidity; conditions: for change in the response current value after the exposure test: 24 hours at 30° C., 80% relative humidity; for Sensor stability % change in response current value between before and after 24 hours exposure at 30° C. and 80% humidity: additive in reagent layer, additive conc. 1.0-5.0 mM
Experimental: Sensors were manufactured in the same manner as described in section [1-5] using the reagent solutions prepared above. The sensors manufactured were exposed to an environment of high temperature and humidity (30° C., 80% relative humidity) for 24 hours. Response current values of the pre- and post-exposed sensors were measured for a series of glucose solutions of known concentrations.
Sensors were manufactured using fresh reagent solutions having the same compositions as described above. The sensors were subjected to an exposure experiment where they were allowed to stand for 24 hours at 30° C. and 80% humidity. Response current values of non-exposed sensors (i.e., sensors stored under the ambient condition (25° C., 5% humidity) for 24 hours) and the exposed sensors were measured for a series of glucose solutions of known concentrations.

[3] = Redox / oxidation potentials stated in the description; format: physicochemical
[4] = Solubility in water of mediators; format: physicochemical; conditions: for solubility: water
From the text: Solubilities in water of Compounds A, B, H′, I, I′ and J and disodium 9,10-phenanthrenequinone 2,7-disulfonate are given in Table 1.

[5] = Cyclic voltammetry of mediators, redox potential vs Ag|AgCl; format: physicochemical; conditions: reference Ag|AgCl; for Eox (V): potential at peak oxidation current; for Ered (V): potential at peak reduction current; for EO′ (V) [(Ered + Eox)/2]: redox potential, average of Ered and Eox
Experimental: Redox potential (EO′) was calculated in the following procedure. Specifically, cyclic voltammetry using Ag|AgCl as the reference electrode was performed under the same conditions as those in Examples to be described later. Redox potential (EO′) was found as an average of the potential value at the peak oxidation current (Eox) and the potential value at the peak reduction current (Ered), i.e., [(Ered+Eox)/2].
Cyclic voltammetry was performed for the resultant reagent solution using the aforementioned sensor electrode. As a reference electrode, a silver/silver chloride (saturated potassium chloride) electrode (hereinafter “Ag|AgCl”) was used. The reference electrode was led to vent hole 61 of the sensor electrode via a salt bridge. A potentiostat was used for measurement. The electrodes and the potentiostat used were those commonly used in electrochemistry. These instruments can be purchased from BAS Inc., for example.
In cyclic voltammetry, a potential applied to the working electrode was swept linearly with respect to time. The sweeping rate was set to 0.1 V/second. First, a first potential was applied to the working electrode, and the electrode potential was swept toward negative potentials from the first potential to a second potential. The electrode potential was then swept back from the second potential to the first potential toward positive potentials. The first and second potentials were 0.2 V and […], respectively, […]

[6] = cited from earlier work; for redox potential: coenzymes and phenanthroline quinone, background values

For `c1nc[nH]n1` [1,2,4-Triazole], which “Reagent solution stability % change in response current value between before and after 24 hours storage at 25° C.” value (from here on “Reagent solution stability % change”) [1] is on record?
The value was −12%.

And the “change in the response current value after the exposure test” value (shortened to “change in the response current value”) [2]?
Its value is “relatively small change in the response current value”.

What about the “Sensor stability % change in response current value between before and after 24 hours exposure at 30° C. and 80% humidity” value (shortened to “Sensor stability % change”) [2] of the same compound?
Its value is −14%.

With `Cc1nccn1C` [1,2-Dimethylimidazole] as the compound, how does the “Reagent solution stability % change” value [1] read?
The value was 2%.

And the “Sensor stability % change” value [2]?
The value was −44%.

Which “redox potential of exemplary electron acceptors” value [3] does the source give for `O=C1C=C(S(=O)(=O)O)c2ccccc2C1=O` [1,2-naphthoquinone-4-sulfonic acid] here?
Its value is −16 mV.

Which “Reagent solution stability % change” value [1] does the source give for `Nc1ncc[nH]1` [2-Aminoimidazole] here?
The value was −6%.

And the “change in the response current value” value [2]?
The value was “relatively small change in the response current value”.

And the “Sensor stability % change” value [2]?
Its value is −7%.

With `Cc1ncc[nH]1` [2-Methylimidazle, 2-methylimidazole] as the compound, how does the “Reagent solution stability % change” value [1] read?
Its value is 1%.

What about the “Sensor stability % change” value [2] of the same compound?
The value was −44%.

What does the source list for `Nc1n[nH]c(N)n1` [3,5-Diamino-1,2,4-triazole]?
Reagent solution stability % change in response current value between before and after 24 hours storage at 25° C. ([1]; additive in reagent solution C composition (PQSA, FAD-GDH), additive conc. 1.0-5.0 mM): −1%; change in the response current value after the exposure test [2]: relatively small change in the response current value; Sensor stability % change in response current value between before and after 24 hours exposure at 30° C. and 80% humidity [2]: −2%

With `Nc1nc[nH]n1` [3-Amino-1,2,4-triazole] as the compound, how does the “Reagent solution stability % change” value [1] read?
The value was 0%.

What about the “change in the response current value” value [2] of the same compound?
The value was “relatively small change in the response current value”.

And the “Sensor stability % change” value [2]?
Its value is −4%.

With `OCc1nc[nH]c1CO` [4,5-Bis(hydroxymethyl) imidazole, 4,5-bis(hydroxymethyl)imidazole] as the compound, how does the “Reagent solution stability % change” value [1] read?
Its value is −14%.

And the “change in the response current value” value [2]?
The value was “relatively small change in the response current value”.

What about the “Sensor stability % change” value [2] of the same compound?
Its value is −11%.

Which “Reagent solution stability % change” value [1] does the source give for `Nn1cnnc1` [4-Amino-1,2,4-triazole] here?
Its value is −6%.

And the “change in the response current value” value [2]?
Its value is “relatively small change in the response current value”.

What about the “Sensor stability % change” value [2] of the same compound?
Its value is −4%.

With `O=C1C(=O)c2cc(S(=O)(=O)O)ccc2-c2ccccc21` [9,10-phenanthrenequinone-2-sulfonic acid] as the compound, how does the “redox potential of exemplary electron acceptors” value [3] read?
The value was −140 mV.

Which “redox potential of exemplary electron acceptors” value [3] does the source give for `O=C1C(=O)c2ccccc2-c2ccccc21` [9,10-phenanthrenequinone] here?
Its value is −180 mV.

With `N=C(N)NCCC[C@H](N)C(=O)O` [Arginine, reference compound] as the compound, how does the “Reagent solution stability % change” value [1] read?
The value was −25%.

And the “Sensor stability % change” value [2]?
Its value is −12%.

With `NCCCCN` [Butanediamine, reference compound] as the compound, how does the “Sensor stability % change” value [2] read?
Its value is −51%.

With `O=C1C(=O)c2cc([N+](=O)[O-])ccc2-c2ccccc21` [Compound A] as the compound, how does the solubility ([4]; read-out: Solubility in water) read?
Its solubility is 1 mM (≈ 253 µg/mL).

What about the “Eox (V)” value [5] of the same compound?
Its value is −0.10 V.

And the “Ered (V)” value [5]?
The value was −0.13 V.

What about the “EO′ (V) [(Ered + Eox)/2]” value [5] of the same compound?
Its value is −0.12 V.

Which solubility ([4]; read-out: Solubility in water) does the source give for `Nc1ccc2c(c1)C(=O)C(=O)c1ccccc1-2` [Compound B] here?
The solubility was 1 mM (≈ 223 µg/mL).

What about the “Eox (V)” value [5] of the same compound?
Its value is −0.19 V.

And the “Ered (V)” value [5]?
The value was −0.23 V.

And the “EO′ (V) [(Ered + Eox)/2]” value [5]?
Its value is −0.21 V.

Which results are given for `O=C1C(=O)c2cc(-c3ccc(S(=O)(=O)[O-])cc3)ccc2-c2ccccc21.[Na+]` [Compound H′]?
solubility ([4]; read-out: Solubility in water): 20 mM; Eox (V) [5]: −0.14 V; Ered (V) [5]: −0.21 V; EO′ (V) [(Ered + Eox)/2] [5]: −0.18 V

Which results are given for `O=C([O-])c1ccc(-c2ccc3c(c2)C(=O)C(=O)c2ccccc2-3)cc1.[Na+]` [Compound I]?
solubility ([4]; read-out: Solubility in water): 5 mM; Eox (V) [5]: −0.14 V; Ered (V) [5]: −0.22 V; EO′ (V) [(Ered + Eox)/2] [5]: −0.18 V

Which results are given for `O=C(NCCS(=O)(=O)[O-])c1ccc(-c2ccc3c(c2)C(=O)C(=O)c2ccccc2-3)cc1.[Na+]` [Compound I′]?
solubility ([4]; read-out: Solubility in water): 20 mM; Eox (V) [5]: −0.14 V; Ered (V) [5]: −0.22 V; EO′ (V) [(Ered + Eox)/2] [5]: −0.18 V

For `O=C([O-])c1cc(C(=O)[O-])cc(-c2ccc3c(c2)C(=O)C(=O)c2ccccc2-3)c1.[Na+].[Na+]` [Compound J], which solubility ([4]; read-out: Solubility in water) is on record?
Its solubility is 50 mM.

And the “Eox (V)” value [5]?
The value was −0.15 V.

And the “Ered (V)” value [5]?
Its value is −0.23 V.

And the “EO′ (V) [(Ered + Eox)/2]” value [5]?
The value was −0.19 V.

Which Solubility in water [4] does the source give for `O=C1C(=O)c2cc(S(=O)(=O)[O-])ccc2-c2ccc(S(=O)(=O)[O-])cc21.[Na+].[Na+]` [Disodium 9,10-phenanthrenequinone-2,7-disulfonate] here?
The Solubility in water was at least 200 mM.

What about the “Eox (V)” value [5] of the same compound?
Its value is −0.06 V.

What about the “Ered (V)” value [5] of the same compound?
Its value is −0.18 V.

What about the “EO′ (V) [(Ered + Eox)/2]” value [5] of the same compound?
The value was −0.12 V.

Which results are given for `NCCN` [Ethylenediamine, reference compound]?
Reagent solution stability % change in response current value between before and after 24 hours storage at 25° C. [1]: −3%; Sensor stability % change in response current value between before and after 24 hours exposure at 30° C. and 80% humidity [2]: −45%

Which redox potential [6] does the source give for `Cc1cc2nc3c(=O)[nH]c(=O)nc-3n(C[C@H](O)[C@H](O)[C@H](O)COP(=O)(O)OP(=O)(O)OC[C@H]3O[C@@H](n4cnc5c(N)ncnc54)[C@H](O)[C@@H]3O)c2cc1C` [FAD, flavin adenine dinucleotide] here?
The redox potential was “approximately −300 mV”.

What does the source list for `NCCc1c[nH]cn1` [Histamine]?
Reagent solution stability % change in response current value between before and after 24 hours storage at 25° C. [1]: −2%; change in the response current value after the exposure test [2]: relatively small change in the response current value; Sensor stability % change in response current value between before and after 24 hours exposure at 30° C. and 80% humidity [2]: −3%

With `N[C@@H](Cc1c[nH]cn1)C(=O)O` [Histidine] as the compound, how does the “Reagent solution stability % change” value [1] read?
The value was −7%.

What about the “change in the response current value” value [2] of the same compound?
Its value is “relatively small change in the response current value”.

And the “Sensor stability % change” value [2]?
The value was −12%.

Which “Reagent solution stability % change” value [1] does the source give for `NCCCC[C@H](N)C(=O)O` [Lysine, reference compound] here?
Its value is −20%.

What about the “Sensor stability % change” value [2] of the same compound?
Its value is −31%.

Which redox potential [6] does the source give for `O=C(O)c1cc(C(=O)O)c2c(n1)C(=O)C(=O)c1cc(C(=O)O)[nH]c1-2` [PQQ, pyrroloquinoline quinone] here?
Its redox potential is “approximately −200 mV”.

With `O=C1C(=O)c2cc(S(=O)(=O)[O-])ccc2-c2ccccc21.[Na+]` [Sodium 9,10-phenanthrenequinone-2-sulfonate] as the compound, how does the solubility [4] read?
Its solubility is 80 mM.

What about the “Eox (V)” value [5] of the same compound?
The value was −0.12 V.

What about the “Ered (V)” value [5] of the same compound?
Its value is −0.18 V.

And the “EO′ (V) [(Ered + Eox)/2]” value [5]?
Its value is −0.15 V.

Which oxidation potential ([6]; interfering substance, background value) does the source give for `O=C1O[C@H]([C@@H](O)CO)C(O)=C1O` [ascorbic acid] here?
The oxidation potential was “approximately −140 mV”.

Which redox potential [6] does the source give for `O=C1C(=O)c2cccnc2-c2ncccc21` [phenanthroline quinone] here?
Its redox potential is “approximately 0 mV”.

Which “Sensor stability % change” value [2] does the source give for Ethyleneamine [reference compound] here?
Its value is −77%.
